The target in experiment [1] is T1, human recombinant adrenergic α2B receptor (Homo sapiens, UniProt P18089).
T1 construct: expressed in transfected cells; host or cells: CHO-K1 cells
T1 sequence (P18089 1-450): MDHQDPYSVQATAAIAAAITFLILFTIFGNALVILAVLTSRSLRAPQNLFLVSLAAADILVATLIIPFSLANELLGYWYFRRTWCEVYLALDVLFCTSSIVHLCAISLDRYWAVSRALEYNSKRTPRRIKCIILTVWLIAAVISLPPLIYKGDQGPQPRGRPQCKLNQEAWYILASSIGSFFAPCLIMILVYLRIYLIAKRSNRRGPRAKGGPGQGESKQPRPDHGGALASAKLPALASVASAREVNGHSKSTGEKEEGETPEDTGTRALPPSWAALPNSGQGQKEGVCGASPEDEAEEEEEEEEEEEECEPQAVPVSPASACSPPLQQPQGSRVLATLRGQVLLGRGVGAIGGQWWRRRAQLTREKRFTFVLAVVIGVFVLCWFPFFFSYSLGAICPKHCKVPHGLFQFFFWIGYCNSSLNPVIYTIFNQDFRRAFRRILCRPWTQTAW
As to the kind of experiment: Adrenergic α2B radioligand binding ([3H]Rauwolscine). The procedure:
To evaluate in radioligand binding assays the activity of compounds of the invention, human recombinant adrenergic α2B receptor expressed in Chinese hamster ovary (CHO-K1) cells (Uhlen S et al. Eur J. Pharmacol. 343(1):93, 1998) in a modified Tris-HCl buffer (50 mM Tris-HCl, pH 7.4, 12.5 mM MgCl2, 1 mM EDTA, 0.2% BSA) was used. Compounds of the invention were incubated with 2.5 nM [^3H]Rauwolscine for 60 minutes at 25° C. Non-specific binding was estimated in the presence of 10 μM Prozosin. Receptor proteins were filtered and washed, the filters were then counted to determine [^3H]Rauwolscine specifically bound. Compounds were screened at 1 μM or lower, using 1% DMSO as vehicle. Biochemical assay results are presented as the percent inhibition of specific binding in Table 4.

Experiment [2] addresses T2, human recombinant adrenergic α1D receptor (Homo sapiens, UniProt P25100).
T2 construct: expressed in transfected cells; host or cells: HEK-293 cells
T2 sequence (P25100 1-572): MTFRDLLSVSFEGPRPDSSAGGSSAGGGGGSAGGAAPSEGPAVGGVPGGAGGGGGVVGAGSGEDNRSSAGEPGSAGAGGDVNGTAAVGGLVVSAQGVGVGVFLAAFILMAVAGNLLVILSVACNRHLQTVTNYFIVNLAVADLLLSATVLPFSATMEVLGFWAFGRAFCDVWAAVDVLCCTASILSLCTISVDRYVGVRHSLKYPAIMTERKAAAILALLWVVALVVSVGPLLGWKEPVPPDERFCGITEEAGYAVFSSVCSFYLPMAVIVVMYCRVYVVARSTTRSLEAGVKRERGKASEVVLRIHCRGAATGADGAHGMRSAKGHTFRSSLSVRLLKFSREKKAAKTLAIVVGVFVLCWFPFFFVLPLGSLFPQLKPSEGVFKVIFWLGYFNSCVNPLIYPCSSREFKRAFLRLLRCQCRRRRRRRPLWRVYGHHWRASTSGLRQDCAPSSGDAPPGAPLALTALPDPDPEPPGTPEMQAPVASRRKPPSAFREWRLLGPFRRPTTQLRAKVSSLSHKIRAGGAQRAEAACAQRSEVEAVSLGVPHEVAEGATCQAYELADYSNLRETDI
The experiment is described as follows: Adrenergic α1D radioligand binding ([3H]Prozosin). The protocol: To evaluate in radioligand binding assays the activity of compounds of the invention, human recombinant adrenergic a1D receptor expressed in human embryonic kidney (HEK-293) cells (Kenny, B. A. et al. Br. J. Pharmacol. 115(6):981, 1995) in a 50 mM Tris-HCl buffer, pH 7.4, was used. Compounds of invention were incubated with 0.6 nM [^3H]Prozosin for 60 minutes at 25° C. Non-specific binding was estimated in the presence of 10 μM phentolamine. Receptor proteins were filtered and washed, the filters were then counted to determine [^3H]Prozosin specifically bound. Compounds were screened at 1 μM or lower, using 1% DMSO as vehicle. Biochemical assay results are presented as the percent inhibition of specific binding in Table 4. Adrenergic a2A

Experiment [3] addresses T3, human recombinant histamine H2 receptor (Homo sapiens, UniProt P25021).
T3 construct: expressed in transfected cells; host or cells: CHO-K1 cells
As to the kind of experiment: Histamine H2 radioligand binding ([125I]Aminopotentidine). In a few lines:
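Membranes of CHO-K1 cells expressing human H2 receptor incubated with 0.1 nM [125I]aminopotentidine, 120 min, 25 °C, 50 mM phosphate pH 7.4; nonspecific binding defined with 3 μM tiotidine.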

[4] abbreviates: 1 h, read-out: Percent Inhibition of ligand binding Adrenergic (1 μM ligand conc.) α2B.
Where [5] appears, read: 1 h, read-out: Percent Inhibition of ligand binding Adrenergic (1 μM ligand conc.) α1D.
The mark [6] stands for this setting: 1 μM, inhibition of specific [125I]Aminopotentidine binding, read-out: Binding data (Percentage Inhibition) Histamine Binding (1 μM) H2.

SMILES strings stand for the structures. Like-named read-outs stand apart in the source and are kept apart here.

T3 sequence (P25021 whole entry): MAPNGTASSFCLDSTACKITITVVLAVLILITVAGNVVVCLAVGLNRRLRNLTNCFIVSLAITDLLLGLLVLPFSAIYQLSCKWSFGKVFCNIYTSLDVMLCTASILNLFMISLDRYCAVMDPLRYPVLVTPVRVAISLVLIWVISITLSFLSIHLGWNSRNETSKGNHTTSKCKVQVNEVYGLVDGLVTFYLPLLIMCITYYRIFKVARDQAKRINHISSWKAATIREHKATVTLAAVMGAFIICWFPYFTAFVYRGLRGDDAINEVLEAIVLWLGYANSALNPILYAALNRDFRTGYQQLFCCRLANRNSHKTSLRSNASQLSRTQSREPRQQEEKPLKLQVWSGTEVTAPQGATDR

One may read the inhibition as the drop in the measured response relative to a control, in per cent. As to `C/C(=C\n1c2c(c3cc(Cl)ccc31)CCN(C)C2C)c1ccc(Cl)cc1` (stereo not drawn) [Compound 99, 6-chloro-9-(2-(4-chlorophenyl)prop-1-enyl)-1,2-dimethyl-2,3,4,9-tetrahydro-1H-pyrido[3,4-b]indole], the inhibition at 1 µM in experiment [1] (setting [4]) was 77%; in experiment [2] (setting [5]), 20%; in experiment [3] (setting [6]) it was 62%.

Consider `CCC1c2c(c3cc(Cl)ccc3n2/C=C(\C)c2ccc(Cl)cc2)CCN1C` (stereo not drawn) [Compound 100, 6-chloro-9-(2-(4-chlorophenyl)prop-1-enyl)-1-ethyl-2-methyl-2,3,4,9-tetrahydro-1H-pyrido[3,4-b]indole], for which the inhibition at 1 µM in experiment [1] (setting [4]) stood at 53%; in experiment [2] (setting [5]) it was 8%; in experiment [3] (setting [6]), 39%.

In the case of `C#CCn1c2c(c3cc(Cl)ccc31)CCN(C)C2` [Compound 125, 6-chloro-2,3,4,9-tetrahydro-2-methyl-9-(prop-2-yn1)-1H-pyrido[3,4-b]indole], the inhibition at 1 µM in experiment [1] (setting [4]) was 67%; in experiment [2] (setting [5]), 93%; in experiment [3] (setting [6]), 9%.

For the compound `CC1c2c(c3cc(Cl)ccc3n2C#Cc2ccc(F)cc2)CCN1C` (stereo not drawn) [Compound 128], the figures for the inhibition at 1 µM in experiment [1] (setting [4]), in experiment [2] (setting [5]) and in experiment [3] (setting [6]) were 94%, 25% and 53%, respectively.

Take `CCC1c2c(c3cc(Cl)ccc3n2C#Cc2ccc(F)cc2)CCN1C` (stereo not drawn) [Compound 129]: the inhibition at 1 µM worked out at 81% in experiment [1] (setting [4]), 10% in experiment [2] (setting [5]) and 26% in experiment [3] (setting [6]).

With `CC1c2c(c3cc(Cl)ccc3n2C#Cc2ccc(Cl)cc2)CCN1C` (stereo not drawn) [Compound 132, 6-chloro-9-((4-chlorophenyl)ethynyl)-1,2-dimethyl-2,3,4,9-tetrahydro-1H-pyrido[3,4-b]indole], the figures for the inhibition at 1 µM in experiment [1] (setting [4]), in experiment [2] (setting [5]) and in experiment [3] (setting [6]) were 84%, -8% and 57%, respectively.

For `CCC1c2c(c3cc(C)ccc3n2C(=O)Cc2ccc(F)cc2)CCN1C` (stereo not drawn) [Compound 159], the inhibition at 1 µM in experiment [1] (setting [4]) amounted to 78%; in experiment [2] (setting [5]), 25%; in experiment [3] (setting [6]), 20%.

As to `CCC1c2c(c3cc(C)ccc3n2/C=C(\C)c2ccc(Cl)cc2)CCN1C` (stereo not drawn) [Compound 160, 9-(2-(4-chlorophenyl)prop-1-enyl)-1-ethyl-2,6-dimethyl-2,3,4,9-tetrahydro-1H-pyrido[3,4-b]indole], the inhibition at 1 µM was determined as 75% in experiment [1] (setting [4]), 25% in experiment [2] (setting [5]) and 67% in experiment [3] (setting [6]).

As for `C/C(=C\n1c2c(c3cc(C)ccc31)CCN(C)C2C)c1ccc(Cl)cc1` (stereo not drawn) [Compound 161, 9-(2-(4-chlorophenyl)prop-1-enyl)-1,2,6-trimethyl-2,3,4,9-tetrahydro-1H-pyrido[3,4-b]indole], the inhibition at 1 µM in experiment [1] (setting [4]) was 92%; in experiment [2] (setting [5]), 32%; in experiment [3] (setting [6]), 82%.

For `CCC1c2c(c3cc(C)ccc3n2C#Cc2ccc(Cl)cc2)CCN1C` (stereo not drawn) [Compound 162, 9-((4-chlorophenyl)ethynyl)-1-ethyl-2,6-dimethyl-2,3,4,9-tetrahydro-1H-pyrido[3,4-b]indole], the results for the inhibition at 1 µM in experiment [1] (setting [4]), in experiment [2] (setting [5]) and in experiment [3] (setting [6]) were 85%, 19% and 33%, respectively.

Take `Cc1ccc2c(c1)c1c(n2C(=O)Cc2ccc(Cl)cc2)C(c2ccccc2)N(C)CC1` (stereo not drawn) [Compound 163]: the values for the inhibition at 1 µM in experiment [1] (setting [4]), in experiment [2] (setting [5]) and in experiment [3] (setting [6]) were 37%, 78% and 27%, respectively.

For `C/C(=C\n1c2c(c3cc(C)ccc31)CCN(C)C2c1ccccc1)c1ccc(Cl)cc1` (stereo not drawn) [Compound 164, 9-(2-(4-chlorophenyl)prop-1-enyl)-2,6-dimethyl-1-phenyl-2,3,4,9-tetrahydro-1H-pyrido[3,4-b]indole], the inhibition at 1 µM in experiment [1] (setting [4]) was found to be 15%; in experiment [2] (setting [5]), 10%; in experiment [3] (setting [6]), 25%.

Consider `C/C(=C/n1c2c(c3cc(C)ccc31)CCN(C)C2C)c1ccccc1F` (stereo not drawn) [Compound 165], for which the inhibition at 1 µM in experiment [1] (setting [4]) was found to be 91%; in experiment [2] (setting [5]) it was 26%; in experiment [3] (setting [6]) it was 22%.

Regarding `C/C(=C\n1c2c(c3cc(C)ccc31)CCN(C)C2C)c1ccccc1F` (stereo not drawn) [Compound 166], the inhibition at 1 µM is 106% in experiment [1] (setting [4]); 106% in experiment [1] (compound concentration 1 μM, read-out: Percentage inhibition of ligand binding to Adrenergic α2B receptor); 69% in experiment [2] (setting [5]); 69% in experiment [2] (compound concentration 1 μM, read-out: Percentage inhibition of ligand binding to Adrenergic α1D receptor); 90% in experiment [3] (setting [6]); 90% in experiment [3] (compound concentration 1 μM, read-out: Percentage inhibition of ligand binding to H2 receptor).

For the compound `C/C(=C/n1c2c(c3cc(Cl)ccc31)CCN(C)C2C)c1ccccc1F` (stereo not drawn) [Compound 167], the inhibition at 1 µM in experiment [1] (setting [4]) was 94%; in experiment [2] (setting [5]) it was 36%; in experiment [3] (setting [6]) it was 51%.

With `C/C(=C\n1c2c(c3cc(Cl)ccc31)CCN(C)C2C)c1ccccc1F` (stereo not drawn) [Compound 168], the inhibition at 1 µM was 82% in experiment [1] (setting [4]), 38% in experiment [2] (setting [5]) and 64% in experiment [3] (setting [6]).

Source of the values: patent US9260429B2, “Pyrido[3,4-B]indoles and methods of use” (Medivation Technologies, Inc., priority 2008, dated 2016).
